{
  "source": "ChEMBL document CHEMBL1201862",
  "about": "“PubChem BioAssay data set” (2004)",
  "test_in_all_cases": "DTP human tumour cell line panel, 48 h",
  "key": {"[1]": {"test_system": "TK-10"}, "[2]": {"test_system": "MCF7"}, "[3]": {"test_system": "SF-539"}, "[4]": {"test_system": "CCRF-CEM"}, "[5]": {"test_system": "U-251"}, "[6]": {"test_system": "UACC-257"}, "[7]": {"test_system": "SF-295"}, "[8]": {"test_system": "CAKI-1"}, "[9]": {"test_system": "786-0"}, "[10]": {"test_system": "RPMI-8226"}, "[11]": {"test_system": "MDA-MB-435"}, "[12]": {"test_system": "SNB-75"}, "[13]": {"test_system": "SK-MEL-28"}, "[14]": {"test_system": "COLO 205"}, "[15]": {"test_system": "BT-549"}, "[16]": {"test_system": "HOP-92"}, "[17]": {"test_system": "NCI/ADR-RES"}, "[18]": {"test_system": "HT-29"}, "[19]": {"test_system": "SK-MEL-2"}, "[20]": {"test_system": "SR"}, "[21]": {"test_system": "HCT-15"}, "[22]": {"test_system": "OVCAR-4"}, "[23]": {"test_system": "NCI-H23"}, "[24]": {"test_system": "SNB-19"}, "[25]": {"test_system": "OVCAR-3"}, "[26]": {"test_system": "IGROV-1"}, "[27]": {"test_system": "HCC 2998"}, "[28]": {"test_system": "KM12"}, "[29]": {"test_system": "T47D"}, "[30]": {"test_system": "LOX IMVI"}, "[31]": {"test_system": "SW-620"}, "[32]": {"test_system": "UO-31"}, "[33]": {"test_system": "HL-60"}, "[34]": {"test_system": "DU-145"}, "[35]": {"test_system": "A549"}, "[36]": {"test_system": "OVCAR-8"}, "[37]": {"test_system": "SK-OV-3"}, "[38]": {"test_system": "HCT-116"}, "[39]": {"test_system": "K562"}, "[40]": {"test_system": "SK-MEL-5"}, "[41]": {"test_system": "SF-268"}, "[42]": {"test_system": "OVCAR-5"}, "[43]": {"test_system": "EKVX"}, "[44]": {"test_system": "A498"}, "[45]": {"test_system": "Hs-578T"}, "[46]": {"test_system": "HOP-62"}, "[47]": {"test_system": "NCI-H226"}, "[48]": {"test_system": "M14"}, "[49]": {"test_system": "MDA-MB-231"}, "[50]": {"test_system": "NCI-H522"}, "[51]": {"test_system": "SN12C"}, "[52]": {"test_system": "Malme-3M"}, "[53]": {"test_system": "PC-3"}, "[54]": {"test_system": "NCI-H460"}, "[55]": {"test_system": "UACC-62"}, "[56]": {"test_system": "MDA-N"}, "[57]": {"test_system": "ACHN"}, "[58]": {"test_system": "RXF 393"}, "[59]": {"test_system": "MOLT-4"}},
  "note": "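Briefly, cells in 96-well plates were exposed to five compound concentrations for 48 h, and endpoints were estimated by linear interpolation. GI50 = concentration required for 50% inhibition of growth.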 Active and inactive are the calls of the source. Cut-off read from the data, not from the text of the source: active = GI50 up to about 1.1 µM and inactive = higher.",
  "data": [
    {"compound": "C/C(=N/CC(=O)O)c1ccccc1", "values": [
      {"measurement": "GI50", "setting": "[1]", "result": "> 100 µM (inactive)"},
      {"measurement": "GI50", "setting": "[2]", "result": "> 100 µM (inactive)"},
      {"measurement": "GI50", "setting": "[3]", "result": "> 100 µM (inactive)"},
      {"measurement": "GI50", "setting": "[4]", "result": "27.8 µM (inactive)"},
      {"measurement": "GI50", "setting": "[5]", "result": "> 100 µM (inactive)"},
      {"measurement": "GI50", "setting": "[6]", "result": "> 100 µM (inactive)"},
      {"measurement": "GI50", "setting": "[7]", "result": "> 100 µM (inactive)"},
      {"measurement": "GI50", "setting": "[8]", "result": "> 100 µM (inactive)"},
      {"measurement": "GI50", "setting": "[9]", "result": "> 100 µM (inactive)"},
      {"measurement": "GI50", "setting": "[10]", "result": "> 100 µM (inactive)"},
      {"measurement": "GI50", "setting": "[11]", "result": "> 100 µM (inactive)"},
      {"measurement": "GI50", "setting": "[12]", "result": "> 100 µM (inactive)"},
      {"measurement": "GI50", "setting": "[13]", "result": "> 100 µM (inactive)"},
      {"measurement": "GI50", "setting": "[14]", "result": "> 100 µM (inactive)"},
      {"measurement": "GI50", "setting": "[15]", "result": "61 µM (inactive)"},
      {"measurement": "GI50", "setting": "[16]", "result": "> 100 µM (inactive)"},
      {"measurement": "GI50", "setting": "[17]", "result": "> 100 µM (inactive)"},
      {"measurement": "GI50", "setting": "[18]", "result": "> 100 µM (inactive)"},
      {"measurement": "GI50", "setting": "[19]", "result": "> 100 µM (inactive)"},
      {"measurement": "GI50", "setting": "[20]", "result": "65 µM (inactive)"},
      {"measurement": "GI50", "setting": "[21]", "result": "> 100", "unit": "µM"},
      {"measurement": "GI50", "setting": "[22]", "result": "> 100 µM (inactive)"},
      {"measurement": "GI50", "setting": "[23]", "result": "92.5 µM (inactive)"},
      {"measurement": "GI50", "setting": "[24]", "result": "> 100 µM (inactive)"},
      {"measurement": "GI50", "setting": "[25]", "result": "> 100 µM (inactive)"},
      {"measurement": "GI50", "setting": "[26]", "result": "> 100 µM (inactive)"},
      {"measurement": "GI50", "setting": "[27]", "result": "39.8 µM (inactive)"},
      {"measurement": "GI50", "setting": "[28]", "result": "> 100 µM (inactive)"},
      {"measurement": "GI50", "setting": "[29]", "result": "> 100 µM (inactive)"},
      {"measurement": "GI50", "setting": "[30]", "result": "> 100 µM (inactive)"},
      {"measurement": "GI50", "setting": "[31]", "result": "> 100 µM (inactive)"},
      {"measurement": "GI50", "setting": "[32]", "result": "97.5 µM (inactive)"},
      {"measurement": "GI50", "setting": "[33]", "result": "35.9 µM (inactive)"},
      {"measurement": "GI50", "setting": "[34]", "result": "> 100 µM (inactive)"},
      {"measurement": "GI50", "setting": "[35]", "result": "> 100 µM (inactive)"},
      {"measurement": "GI50", "setting": "[36]", "result": "> 100 µM (inactive)"},
      {"measurement": "GI50", "setting": "[37]", "result": "> 100 µM (inactive)"},
      {"measurement": "GI50", "setting": "[38]", "result": "> 100 µM (inactive)"},
      {"measurement": "GI50", "setting": "[39]", "result": "> 100 µM (inactive)"},
      {"measurement": "GI50", "setting": "[40]", "result": "89.5 µM (inactive)"},
      {"measurement": "GI50", "setting": "[41]", "result": "> 100 µM (inactive)"},
      {"measurement": "GI50", "setting": "[42]", "result": "> 100 µM (inactive)"},
      {"measurement": "GI50", "setting": "[43]", "result": "> 100 µM (inactive)"},
      {"measurement": "GI50", "setting": "[44]", "result": "> 100 µM (inactive)"},
      {"measurement": "GI50", "setting": "[45]", "result": "> 100 µM (inactive)"},
      {"measurement": "GI50", "setting": "[46]", "result": "> 100 µM (inactive)"},
      {"measurement": "GI50", "setting": "[47]", "result": "> 100 µM (inactive)"},
      {"measurement": "GI50", "setting": "[48]", "result": "> 100 µM (inactive)"},
      {"measurement": "GI50", "setting": "[49]", "result": "> 100 µM (inactive)"},
      {"measurement": "GI50", "setting": "[50]", "result": "34.8 µM (inactive)"},
      {"measurement": "GI50", "setting": "[51]", "result": "> 100 µM (inactive)"},
      {"measurement": "GI50", "setting": "[52]", "result": "> 100 µM (inactive)"},
      {"measurement": "GI50", "setting": "[53]", "result": "> 100 µM (inactive)"},
      {"measurement": "GI50", "setting": "[54]", "result": "> 100 µM (inactive)"},
      {"measurement": "GI50", "setting": "[55]", "result": "> 100 µM (inactive)"},
      {"measurement": "GI50", "setting": "[56]", "result": "> 100 µM (inactive)"},
      {"measurement": "GI50", "setting": "[57]", "result": "> 100 µM (inactive)"},
      {"measurement": "GI50", "setting": "[58]", "result": "> 100 µM (inactive)"},
      {"measurement": "GI50", "setting": "[59]", "result": "70.5 µM (inactive)"}
    ]}
  ]
}
